How the values were obtained:
human SGLT2 = target: T1, human SGLT2 (Homo sapiens, UniProt P31639); experiment: Inhibition of human Na+-glucose cotransporter (human SGLT2) activity: methyl-α-D-glucopyranoside intake in CHO cells stably expressing human SGLT2; assay type: cell-based; conditions: CHO cell stably expressing human SGLT2; methyl-α-D-(U-14C)glucopyranoside intake, 37° C., two hours
T1 construct: expressed in transfected cells; host or cells: CHO-K1
T1 sequence (P31639 1-672): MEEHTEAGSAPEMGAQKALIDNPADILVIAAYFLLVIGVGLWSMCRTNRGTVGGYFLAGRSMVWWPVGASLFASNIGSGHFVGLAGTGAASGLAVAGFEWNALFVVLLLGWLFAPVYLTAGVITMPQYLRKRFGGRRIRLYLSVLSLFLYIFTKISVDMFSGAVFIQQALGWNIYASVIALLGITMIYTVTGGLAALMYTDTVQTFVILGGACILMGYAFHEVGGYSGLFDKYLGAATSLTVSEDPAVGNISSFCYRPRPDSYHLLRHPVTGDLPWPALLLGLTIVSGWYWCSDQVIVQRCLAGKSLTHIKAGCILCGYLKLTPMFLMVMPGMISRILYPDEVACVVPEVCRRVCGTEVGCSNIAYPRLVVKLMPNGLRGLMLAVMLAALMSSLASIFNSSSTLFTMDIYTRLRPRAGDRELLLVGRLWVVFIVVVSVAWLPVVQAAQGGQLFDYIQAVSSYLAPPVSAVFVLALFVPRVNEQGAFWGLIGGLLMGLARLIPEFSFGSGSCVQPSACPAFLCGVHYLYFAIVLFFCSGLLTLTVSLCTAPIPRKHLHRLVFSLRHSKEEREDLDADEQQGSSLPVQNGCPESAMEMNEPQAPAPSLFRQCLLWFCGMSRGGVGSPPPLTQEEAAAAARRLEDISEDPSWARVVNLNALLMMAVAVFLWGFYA
Source text: Inhibition of Human Na^+-Glucose Cotransporter (Human SGLT2) Activity
(1) Preparation of Human SGLT 2 Expression Vector
First, single-strand cDNA was reversely transcripted from total RNA originating from the human kidney (manufactured by BD Biosciences Clontech) using a Superscript II (manufactured by Invitrogen Corporation) and a random hexamer. Second, using the cDNA as a template, a DNA fragment encoding a human SGLT2 (Wells, R. G. et al., Am. J. Physiol., 1992, 263(3) F459) was amplified by the PCR reaction using Pyrobest DNA polymerase (manufactured by Takara Bio Inc.). That is, a Hind III site and an EcoRI site were inserted into the 5′ side and the 3′ side of the DNA fragment, respectively by using primers.
The amplified fragment was cloned into a pCR2.1-Topo vector using a Topo TA Cloning Kit (manufactured by Invitrogen Corporation) and the cloned vector was transfected into a competent cell of Escherichia coli JM109. Ampicillin-resistant clones were cultured in a LB medium containing ampicillin (100 mg/l). A plasmid was purified from the cultured Escherichia coli using the method of Hanahan (see Maniatis et al., “Molecular Cloning”). A DNA fragment for encoding a human SGLT2 was obtained by the Hind III/EcoRI digestion of the plasmid and ligated and cloned to the same site of the expression vector pcDNA 3.1 (manufactured by Invitrogen Corporation) using a DNA ligase (manufactured by Roche Diagnostics). The ligated clone was transfected into a competent cell of Escherichia coli JM109 in the same manner as described above and cultured in a LB medium containing ampicillin, and a human SGLT2 expression vector was obtained using the method of Hanahan.
(2) Preparation of Human SGLT2 Expressed Cells
The human SGLT2 expression vector was transfected into a CHO-K1 cell using Lipofectamine2000 (manufactured by Invitrogen Corporation). The cell was cultured in a Ham's F12 medium (manufactured by Nissui Pharmaceutical Co., Ltd.) containing penicillin (50 IU/ml, manufactured by Dainippon Pharmaceutical Co., Ltd.), streptomycin (50 μg/ml, manufactured by Dainippon Pharmaceutical Co., Ltd.), Geneticin (40 μg/ml, manufactured by Invitrogen Corporation), and 10% fetal bovine serum in the presence of 5% CO2 at 37° C. for two weeks, and Geneticin-resistant clones were obtained.
(3) Inhibition of methyl-α-D-glucopyranoside Intake
After removing the medium of a CHO cell which stably expresses the human SGLT2, a pretreatment buffer solution (buffer solution of pH 7.4 containing choline chloride (140 mM), potassium chloride (2 mM), calcium chloride (1 mM), magnesium chloride (1 mM), 2-[4-(2-hydroxyethyl)1-piperazinyl]ethanesulfonic acid (10 mM), and tris(hydroxymethyl)aminomethane (5 mM)) was added in the amount of 100 μl per well, and incubated at 37° C. for 20 minutes.
11 μl of methyl-α-D-(U-14C)glucopyranoside (manufactured by Amersham Pharmacia Biotech) was mixed with 1,000 μl of a buffer solution for intake containing a test compound (buffer solution of pH 7.4 containing sodium chloride (140 mM), potassium chloride (2 mM), calcium chloride (1 mM), magnesium chloride (1 mM), methyl-α-D-glucopyranoside (50 μM), 2-[4-(2-hydroxy ethyl)1-piperazinyl]ethanesulfonic acid (10 mM), and tris(hydroxymethyl)aminomethane (5 mM)) to prepare a buffer solution for intake. A buffer solution for intake without a test compound was prepared for a control group. A buffer solution for basal intake without a test compound containing choline chloride (140 mM) instead of sodium chloride for measuring the basal intake was prepared as well.
After removing the pretreatment buffer solution, the buffer solution for intake was added (25 μl per well) and incubated at 37° C. for two hours. […]

[1] = test system: blood glucose of KK-A^y mice; experiment: Hypoglycemic activity confirmation test in fed KK-Ay mice; assay type: in vivo, mouse; conditions: fed male KK-A^y mice, oral, suspension 1 mg/10 ml in 0.5% methylcellulose at 10 ml/kg
Method: Hypoglycemic Activity Confirmation Test
Fed KK-A^y mice (CLEA Japan, Inc., male) were used. The test compound was suspended in 0.5% methylcellulose solution to a concentration of 1 mg/10 ml. The weight of each mouse was measured. The test compound suspension was orally administered to the mice at a dose of 10 ml/kg. Only 0.5% methylcellulose solution was administered to the mice of a control group. Each group consisted of six mice. Blood was collected from the tail vein immediately before administering the compound and one, two, four, and eight hours after administering the compound. The blood glucose value was measured using a glucose CII Test Wako (manufactured by Wako Pure Chemical Industries, Ltd.). The intensity of hypoglycemic activity was determined by calculating the area under the blood glucose value-time curve (AUC) using a trapezoidal method from the glucose value of 0-8 hours after administering the compound and calculating the rate (%) of the decrease in the AUC of the drug-administered group from that of the control group.

Structure (SMILES)	IC50 (human SGLT2)	Hypoglycemic activity (rate of decrease in blood glucose AUC 0-8 hours versus control group) [1]
COc1ccc([C@@H]2O[C@H](CO)[C@@H](O)[C@H](O)[C@H]2O)cc1Cc1cc2ccccc2s1 [Example 134]	14 nM	39%
COc1cc(OC)c([C@@H]2O[C@H](CO)[C@@H](O)[C@H](O)[C@H]2O)cc1Cc1cc2ccccc2s1 [Example 141]	3.8 nM	34%
CCc1ccc(Cc2nc([C@@H]3O[C@H](CO)[C@@H](O)[C@H](O)[C@H]3O)c(Cl)nc2Cl)cc1 [Example 150]	6.5 nM	–

Now from value to compound, other results behind:

IC50 (human SGLT2)	Structure (SMILES)	Hypoglycemic activity (rate of decrease in blood glucose AUC 0-8 hours versus control group) [1]
13 nM	COc1ccc(Cc2cc3ccccc3s2)cc1[C@@H]1O[C@H](CO)[C@@H](O)[C@H](O)[C@H]1O [Example 117]	–
21 nM	OC[C@H]1O[C@@H](c2cc(Cc3cc4ccccc4s3)c(O)cc2O)[C@H](O)[C@@H](O)[C@@H]1O [Example 142]	–
6.6 nM	OC[C@H]1O[C@@H](c2cc(Cc3cc4ccsc4s3)ccc2O)[C@H](O)[C@@H](O)[C@@H]1O [Example 174]	–
